The test system of data set [1] is actively sensitized guinea pigs. The data set can be described thus: Inhibition of antigen-induced immediate asthmatic response (airway resistance, Konzett-Rossler method). It is filed as in vivo, Male Hartley outbred guinea pigs. Conditions: orally, 60 minutes prior to antigen-challenge, ovalbumin-sensitized guinea pigs, Probit method; for ED50: Cavia porcellus. As for the experimental part: Male Hartley outbred guinea pigs were sensitized by administering intraperitoneally physiological saline (0.5 ml) containing ovalbumin (1 mg, antigen) and 5×10^9 inactivated Bordetella pertussis dead cells (adjuvant). Eleven to thirteen days after the first sensitization, 0.05 ml of an ovalbumin solution (1 mg/ml) (ovalbumin is dissolved in physiological saline) was administered to the lateroabdominal region of each guinea pig intracutaneously. An establishment of sensitization was checked relying on cutaneous reaction. Only guinea pigs wherein significant reddening responses occurred 5 to 10 minutes later were employed in the next measurement test for airway resistance.
The guinea pigs (3 animals per group) actively sensitized in the above step (1) were employed to measure for their airway pressure according to Konzett-Rossler method (Arch. Exp. Path. Pharmakol., 195, 71 (1940)).
Thirteen days after the final sensitization, guinea pigs fasted overnight, and were on the next day anesthetized with a pentobarbital solution (30 mg/1.2 ml/kg, dissolved in physiological saline, intraperitoneal administration). After the guinea pigs were fixed in a supine position, their trachea was incised followed by insertion with one port of a 4-port cannula. Among the remaining 3 ports, 2 ports were connected to an artificial respirator (Model 683, Harvard). The animals were ventilated with 10 ml/kg of air per ventilation at a rate of 60 beats/min via the artificial respirator from the cannula. One port remainder was connected to a respiratory amplifier (AR-601G, Nihon Kohden, Japan) via an airflow resistance tube (TV-241T, Nihon Kohden, Japan) and a differential pressure transducer (TP-602T, Nihon Kohden, Japan) connected with a control box (RY-111S, Nihon Kohden, Japan). From a catheter inserted into a left carotid artery, blood pressures were monitored with a blood pressure measurement unit (AP641G, NEC Corp., Japan) via a blood pressure transducer (TP-300T, Nihon Kohden, Japan), and heart rates were recorded on a thermal recorder (WT-685G, Nihon Kohden, Japan), relying on blood pressure pulse waves after being led to a cardiograph unit (AT601G, Nihon Kohden, Japan).
After airway pressure became stable, an ovalbumin solution. (1 mg/ml, dissolved in physiological saline) was administered at a dose of 1 ml/kg via a tube with which the right jugular vein of guinea pigs was cannulated.
Each test compound was suspended in 0.5% CMC—Na solution and administered orally with an oral sound at a dose of 0.03 to 20 mg/2 ml/kg 60 minutes prior to the antigen-challenge. Control groups received only 0.5% CMC—Na solution in an equivalent amount. The pentobarbital-anesthetization and tracheal incision were conducted 30 minutes prior to the antigen-challenge.
Each percent reduction of increase in airway resistance (each test compound-administered group versus control group) was calculated according to the equation given below. ED50 was obtained by Probit method.

In data set [2] the test system is PDE IV isozymes separated from U937 culture cells. The experiment in a line: PDE IV inhibition ([3H]-cAMP hydrolysis). It is filed as biochemical. Conditions: cAMP 1 μM as substrate, 30° C., 20 minutes, Probit method. As for the experimental part: PDE IV isozymes as used herein were separated from U937 culture cells by using an anion exchange chromatography. Type IV PDE isozyme was admixed with ethylene glycol (EG) to adjust the final EG concentration to 30%, then stored at −20° C. and diluted when used. The enzymatic activity for PDE IV was measured using cAMP as a substrate.
Each test compound was dissolved in DMSO to adjust the final concentration to 1% (2.5 μl/tube). Incubation buffer solution (pH7.5): • Tris-HCl (50 mM), magnesium chloride (6 mM), dithiothreitol (2.5 mM), 5-nucleotidase (4 μg/ml), bovine serum albumin (0.23 mg/ml), and cAMP (1 μM).
A mixture of the aforementioned test compound solution and the buffer solution was incubated at 30° C. for 20 minutes. The reaction was quenched by admixing with 1 ml of anion exchange resin slurry (AG1-X8, 200–400 meshes, chloride form; Bio-Rad) to absorb unreacted substrates. After the reaction stopped, the mixture was centrifuged at 800×g for 10 minutes, and the resulting supernatant was collected with vials in 250 μl aliquots. To each vial was added 5 ml of ACS-II (scintillator, Amersham). The radioactivity was measured with a liquid scintillator counter for [^3H]-adenosine and set as the PDE IV activity.

Data set [3] deals with Male Marshall ferrets. The data set can be described thus: Emetic action. It is filed as in vivo. Conditions: oral, observed within 12 hours, dose = ED50 of Assay Example 2. Here is the method:
Male Marshall ferrets (each group consisting of 3 animals) as used herein fasted overnight. On the next day, a suspension of each test compound in 0.5% CMC—Na solution was administered orally to the animals. […] Next, each maximum tolerance dose against emesis was obtained. SB207499 was used for the reference compound in this assay.

Data set [4] relates to ICR mice. The data set can be described thus: Toxicology study. The following applies: oral 300 mg/10 ml/kg. It is filed as in vivo. As for the experimental part: Each Compound (Example Nos. 7 and 8) was administered orally to ICR mice (7 animals per group) as a test compound. […] Each test compound was suspended in 0.5% CMC—Na solution and given orally to the animal at a dose of 300 mg/10 ml/kg.

Structures are written as SMILES.

The compound `CC(CCc1cc2cccnc2n(-c2cccc(N(C)C)c2)c1=O)c1ccncc1` (stereo not shown) [Example 15, 1-(3-Dimethylaminophenyl)-3-[3-methyl-3-(pyridin-4-yl)propyl]-1,8-naphthyridin-2(1H)-one] had a melting point of 148 to 154 °C.
On the same count and under the same terms, with `CC(CCc1cc2cccnc2n(-c2cccc(N)c2)c1=O)c1ccncc1` (stereo not shown) [Example 13, 1-(3-Aminophenyl)-3-[3-methyl-3-(pyridin-4-yl)propyl]-1,8-naphthyridin-2(1H)-one] the figure was 83 to 91 °C.
Take `CC(CCc1cc2cccnc2n(-c2cccc([N+](=O)[O-])c2)c1=O)c1ccncc1` (stereo not shown) [Example No. 11, 1-(3-Nitrophenyl)-3-[3-methyl-3-(pyridin-4-yl)propyl]-1,8-naphthyridin-2(1H)-one]: the melting point fell in the range of 154 to 155 °C. In addition, in data set [1], the 50% effective dose (ED50) was 0.12 mg/kg. In data set [2], this compound yielded a half-inhibitory concentration (IC50) of 0.07 µM.
In turn, `Nc1cccc(-n2c(=O)c(CCC(O)c3ccncc3)cc3cccnc32)c1` (stereo not shown) [Example 23, 1-(3-Aminophenyl)-3-[3-hydroxy-3-(pyridin-4-yl)propyl]-1,8-naphthyridin-2(1H)-one] gave a melting point of 209 to 211 °C.
For the compound `Nc1cccc(-n2c(=O)c(CCCc3cc[n+]([O-])cc3)cc3cccnc32)c1` [Example No. 8, 1-(3-Aminophenyl)-3-[3-(1-oxypyridin-4-yl)propyl]-1,8-naphthyridin-2(1H)-one], the ED50 in data set [1] is 1.2 mg/kg. Also, the “Emetic actions at asthmatic response-inhibitory ED50 level” value in data set [3] is on record as “no observation for emetic actions”. Moreover, in data set [4], the Body weight gain entry is recorded as “No reduction of body weight gains was observed”, the Mortality result is “None of the animals were died” and the “Other parameters (general health conditions)” value is “no abnormality was observed”. Half-maximal inhibition in data set [2] (IC50) was put at 0.067 µM.
`CN(C)c1cccc(-n2c(=O)c(CCCc3ccncc3)cc3cccnc32)c1` [Example 9, 1-(3-Dimethylaminophenyl)-3-[3-(pyridin-4-yl)propyl]-1,8-naphthyridin-2(1H)-one]: the melting point fell in the range of 124 to 127 °C.
With `COc1ccc(C2CNC(=O)C2)cc1OC1CCCC1` (stereo not shown) [Rolipram, reference compound], the 50% effective dose (ED50) in data set [1] came out at 0.51 mg/kg.
Consider `CC(CCc1cc2cccnc2n(-c2cccc([N+](=O)[O-])c2)c1=O)c1cc[n+]([O-])cc1` (stereo not shown) [Example No. 12, 1-(3-nitrophenyl)-3-[3-methyl-3-(1-oxypyridin-4-yl)propyl]-1,8-naphthyridin-2(1H)-one], for which the melting point fell in the range of 182.5 to 196.5 °C. Further, the ED50 in data set [1] came out at 0.21 mg/kg. Besides, inhibition in data set [2] was half-maximal at 0.13 µM (IC50).
For `Nc1cccc(-n2c(=O)c(CCC(=O)c3cc[n+]([O-])cc3)cc3cccnc32)c1` [Example No. 19, 1-(3-Aminophenyl)-3-[3-oxo-3-(1-oxypyridin-4-yl)propyl]-1,8-naphthyridin-2(1H)-one], in data set [1], the “Inhibition of Asthmatic response ED50” value amounted to 0.38 mg/kg.
Take `O=c1c(CCCc2ccccn2)cc2cccnc2n1-c1ccc2nsnc2c1` [Example 3, 1-(2,1,3-Benzothiadiazol-5-yl)-3-[3-(pyridin-2-yl)propyl]-1,8-naphthyridin-2(1H)-one]: the melting point was in the range of 169.5 to 170.5 °C.
Same read-out and setting: under `O=c1c(CCCc2cncnc2)cc2cccnc2n1-c1cccc([N+](=O)[O-])c1` [Example 4, 1-(3-Nitrophenyl)-3-[3-(pyrimidin-5-yl)propyl]-1,8-naphthyridin-2(1H)-one] stands 175 to 175.5 °C.
On the same count and under the same terms, under `O=c1c(CCCc2cnccn2)cc2cccnc2n1-c1cccc([N+](=O)[O-])c1` [Example 6, 1-(3-Nitrophenyl)-3-[3-(pyrazin-2-yl)propyl]-1,8-naphthyridin-2(1H)-one] stands 194 to 195 °C; under `O=c1c(CCC(O)c2ccncc2)cc2cccnc2n1-c1cccc([N+](=O)[O-])c1` (stereo not shown) [Example 20, 1-(3-nitrophenyl)-3-[3-hydroxy-3-(pyridin-4-yl)propyl]-1,8-naphthyridin-2(1H)-one], 235 to 236 °C.
On the same count and under the same terms, with `O=c1c(CCCc2ccncc2)cc2cccnc2n1-c1ccc2nonc2c1` [Example 27, 1-(2,1,3-Benzoxadiazol-5-yl)-3-[3-(pyridin-4-yl)propyl]-1,8-naphthyridin-2(1H)-one] the figure was 192 to 194 °C.
`O=c1c(CCCc2cccnn2)cc2cccnc2n1-c1cccc([N+](=O)[O-])c1` [Example 5, 1-(3-Nitrophenyl)-3-[3-(pyridazin-3-yl)propyl]-1,8-naphthyridin-2(1H)-one] returned a melting point of 234 to 235 °C.
Same read-out and setting: under `O=c1c(CCCc2ccncc2)cc2cccnc2n1-c1cccc2nsnc12` [Example 24, 1-(2,1,3-Benzothiadiazol-4-yl)-3-[3-(pyridin-4-yl)propyl]-1,8-naphthyridin-2(1H)-one] stands 191 to 192 °C; under `O=c1c(CCCc2ccncc2)cc2cccnc2n1-c1ccc(Cl)c([N+](=O)[O-])c1` [Example 25, 1-(4-Chloro-3-nitrophenyl)-3-[3-(pyridin-4-yl)propyl]-1,8-naphthyridin-2(1H)-one], 136 to 137 °C.
On to `CC(=O)OC(CCc1cc2cccnc2n(-c2cccc([N+](=O)[O-])c2)c1=O)c1ccncc1` (stereo not shown) [Example 22, 1-(3-Nitrophenyl)-3-[3-acetyloxy-3-(pyridin-4-yl)propyl]-1,8-naphthyridin-2(1H)-one], for which the melting point was 69 to 71 °C.
Consider `O=C(CCc1cc2cccnc2n(-c2cccc([N+](=O)[O-])c2)c1=O)c1ccncc1` [Example No. 17, 1-(3-Nitrophenyl)-3-[3-oxy-3-(pyridin-4-yl)propyl]-1,8-naphthyridin-2(1H)-one], for which, in data set [1], the ED50 amounted to 0.71 mg/kg. Further, the concentration for half-maximal inhibition (IC50) in data set [2] stood at 0.45 µM.
`O=c1c(CCCc2cccnc2)cc2cccnc2n1-c1ccc2nsnc2c1` [Example 2, 1-(2,1,3-Benzothiadiazol-5-yl)-3-[3-(pyridin-3-yl)propyl]-1,8-naphthyridin-2(1H)-one] registered a melting point of 173.5 to 174.5 °C.
On the same count and under the same terms, with `CC(=O)Nc1cccc(-n2c(=O)c(CCCc3ccncc3)cc3cccnc32)c1` [Example 10, 1-(3-Acetylaminophenyl)-3-[3-(pyridin-4-yl)propyl]-1,8-naphthyridin-2(1H)-one] the figure was 200 to 202 °C.

What is called melting point is the temperature of the solid-liquid transition. The ED50 is the midpoint of the dose-response relation. For orientation: IC50 means the concentration at which inhibition is half-maximal.

Values taken from US7115623B2, “PDE IV inhibitors” (Aska Pharmaceuticals Co., Ltd., priority 2001, dated 2006).
